# According to patent US9540343B2 (Gilead Sciences, Inc., priority 2011, dated 2017):
# Columns and labels:
# [1] = in vitro; details: human, uninfected MT-4 cells, CC50 (nM), same protocol as Test A, CellTiter-Glo
# Procedure, shortened: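 Cytoprotection read-out: CellTiter-Glo chemiluminescence after 5 days at 37 °C of HIV-IIIb-infected MT-4 cells (m.o.i. 0.003) with compound in 10-point 3-fold dilutions, quadruplicate, 10% FBS. Cytotoxicity (CC50) measured identically without virus.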
# [2] = tested on: HIV-IIIb; assay: Test A: Antiviral assay in MT4 cells; type: cell-based, HIV-1; details: Human immunodeficiency virus 1, IIIB, MT4, 120 h, read-out: % inhibition at 2 μM, percent inhibition of virus-induced cell killing, from dose response curve at 2 uM drug; MT-4 cells infected with HIV-IIIb, 5 days, CellTiter-Glo
Compound,CC50 at 5 days [1],inhibition at 2 µM [2]
"O=C(Cn1nc(C(F)F)c2c1C(F)(F)C1CC21)N[C@@H](Cc1cc(F)cc(F)c1)c1ncccc1-c1cncc2ccccc12 (stereo partly drawn) [Example 120, 2-(3-(difluoromethyl)-5,5-difluoro-3b,4,4a,5-tetrahydro-1H-cyclopropa[3,4]cyclopenta[1,2-c]pyrazol-1-yl)-N—((S)-2-(3,5-difluorophenyl)-1-(3-(isoquinolin-4-yl)pyridin-2-yl)ethyl)acetamide]",13800 nM,73%
"O=C(Cn1nc(C(F)(F)F)c2c1COCC2)N[C@@H](Cc1cc(F)cc(F)c1)c1ncccc1-c1ccc(Cl)cc1 [Example 121, (S)—N-(1-(3-(4-chlorophenyl)pyridin-2-yl)-2-(3,5-difluorophenyl)ethyl)-2-(3-(trifluoromethyl)-4,5-dihydropyrano[3,4-c]pyrazol-1(7H)-yl)acetamide]",9100 nM,68%
"NC(=O)c1cc(-c2cccnc2[C@H](Cc2cc(F)cc(F)c2)NC(=O)Cn2[nH]c(=O)c3c2CCCC3)ccc1F [Example 123E, (S)-5-(2-(2-(3,5-difluorophenyl)-1-(2-(3-oxo-2,3,4,5,6,7-hexahydro-1H-indazol-1-yl)acetamido)ethyl)pyridin-3-yl)-2-fluorobenzamide]",> 53200 nM,84%
"O=C(Cn1nc(C(F)F)c2c1C(F)(F)C1CC21)N[C@@H](Cc1cc(F)cc(F)c1)c1ncncc1-c1ccc2cccnc2c1 (stereo partly drawn) [Example 124C, 2-(3-(difluoromethyl)-5,5-difluoro-3b,4,4a,5-tetrahydro-1H-cyclopropa[3,4]cyclopenta[1,2-c]pyrazol-1-yl)-N—((S)-2-(3,5-difluorophenyl)-1-(5-(quinolin-7-yl)pyrimidin-4-yl)ethyl)acetamide]",20200 nM,77%
"NC(=O)c1cc(-c2cccnc2[C@H](Cc2cc(F)cc(F)c2)NC(=O)[C@H]2CCC(=O)N2)ccc1F [Example 125, (R)—N—((S)-1-(3-(3-carbamoyl-4-fluorophenyl)pyridin-2-yl)-2-(3,5-difluorophenyl)ethyl)-5-oxopyrrolidine-2-carboxamide]",> 53000 nM,0%
"NC(=O)c1cc(-c2cccnc2[C@H](Cc2cc(F)cc(F)c2)NC(=O)C2CCCN2C(=O)c2ccccc2)ccc1F (stereo partly drawn) [Example 126, 1-benzoyl-N—((S)-1-(3-(3-carbamoyl-4-fluorophenyl)pyridin-2-yl)-2-(3,5-difluorophenyl)ethyl)pyrrolidine-2-carboxamide]",> 53000 nM,7%
"O=C(Cn1nc(C(F)F)c2c1C(F)(F)C1CC21)N[C@@H](Cc1cc(F)cc(F)c1)c1ncncc1-c1cccc2[nH]cnc12 (stereo partly drawn) [Example 127C, N—((S)-1-(5-(1H-benzo[d]imidazol-4-yl)pyrimidin-4-yl)-2-(3,5-difluorophenyl)ethyl)-2-(3-(difluoromethyl)-5,5-difluoro-3b,4,4a,5-tetrahydro-1H-cyclopropa[3,4]cyclopenta[1,2-c]pyrazol-1-yl)acetamide]",31900 nM,97%
"CCOC(=O)N1CCCC1C(=O)N[C@@H](Cc1cc(F)cc(F)c1)c1ncccc1-c1ccc(F)c(C(N)=O)c1 (stereo partly drawn) [Example 128, ethyl 2-((S)-1-(3-(3-carbamoyl-4-fluorophenyl)pyridin-2-yl)-2-(3,5-difluorophenyl)ethylcarbamoyl)pyrrolidine-1-carboxylate]",23500 nM,7%
"NC(=O)c1cc(-c2cccnc2[C@H](Cc2cc(F)cc(F)c2)NC(=O)Cn2nc(C(F)(F)OCc3ccccn3)c3c2CCCC3)ccc1OCc1ccccn1 [Example 129, (S)-5-(2-(1-(2-(3-(difluoro(pyridin-2-ylmethoxy)methyl)-4,5,6,7-tetrahydro-1H-indazol-1-yl)acetamido)-2-(3,5-difluorophenyl)ethyl)pyridin-3-yl)-2-(pyridin-2-ylmethoxy)benzamide]",10200 nM,0%
"NC(=O)c1cc(-c2cccnc2[C@H](Cc2cc(F)cc(F)c2)NC(=O)Cn2nc(C(F)(F)F)cc2C2=CCCC2)ccc1F [Example 130D, (S)-5-(2-(1-(2-(5-cyclopentenyl-3-(trifluoromethyl)-1H-pyrazol-1-yl)acetamido)-2-(3,5-difluorophenyl)ethyl)pyridin-3-yl)-2-fluorobenzamide]",15800 nM,39%
"O=C(Cn1nc(C(F)F)c2c1C(F)(F)C1CC21)N[C@@H](Cc1cc(F)cc(F)c1)c1ncncc1-c1ccc2cnccc2c1 (stereo partly drawn) [Example 131C, 2-(3-(difluoromethyl)-5,5-difluoro-3b,4,4a,5-tetrahydro-1H-cyclopropa[3,4]cyclopenta[1,2-c]pyrazol-1-yl)-N—((S)-2-(3,5-difluorophenyl)-1-(5-(isoquinolin-6-yl)pyrimidin-4-yl)ethyl)acetamide]",10400 nM,47%
"CC(C)(C)OC(=O)N1C[C@H](O)C[C@H]1C(=O)N[C@@H](Cc1cc(F)cc(F)c1)c1ncccc1-c1ccc(F)c(C(N)=O)c1 [Example 132, (2S,4R)-tert-butyl 2-((S)-1-(3-(3-carbamoyl-4-fluorophenyl)pyridin-2-yl)-2-(3,5-difluorophenyl)ethylcarbamoyl)-4-hydroxypyrrolidine-1-carboxylate]",22300 nM,7%
"CC(C)(C)OC(=O)N1CCOC[C@@H]1C(=O)N[C@@H](Cc1cc(F)cc(F)c1)c1ncccc1-c1ccc(F)c(C(N)=O)c1 [Example 133, (R)-tert-butyl 3-((S)-1-(3-(3-carbamoyl-4-fluorophenyl)pyridin-2-yl)-2-(3,5-difluorophenyl)ethylcarbamoyl)morpholine-4-carboxylate]",> 53000 nM,1%
"NC(=O)c1cc(-c2cccnc2[C@H](Cc2cc(F)cc(F)c2)NC(=O)Cn2nc(C(F)(F)OCc3ccccn3)c3c2CCCC3)ccc1F [Example 135, (S)-5-(2-(1-(2-(3-(difluoro(pyridin-2-ylmethoxy)methyl)-4,5,6,7-tetrahydro-1H-indazol-1-yl)acetamido)-2-(3,5-difluorophenyl)ethyl)pyridin-3-yl)-2-fluorobenzamide]",21100 nM,53%
"NC(=O)c1cc(-c2cncnc2[C@H](Cc2cc(F)cc(F)c2)NC(=O)Cn2nc(C(F)(F)F)c3c2CC2CC32)ccc1F (stereo partly drawn) [Example 136D, 5-(4-((1S)-2-(3,5-difluorophenyl)-1-(2-(3-(trifluoromethyl)-3b,4,4a,5-tetrahydro-1H-cyclopropa[3,4]cyclopenta[1,2-c]pyrazol-1-yl)acetamido)ethyl)pyrimidin-5-yl)-2-fluorobenzamide]",27800 nM,88%
"CC(C)(C)OC(=O)N1CC(=O)C[C@H]1C(=O)N[C@@H](Cc1cc(F)cc(F)c1)c1ncccc1-c1ccc(F)c(C(N)=O)c1 [Example 137, (S)-tert-butyl 2-((S)-1-(3-(3-carbamoyl-4-fluorophenyl)pyridin-2-yl)-2-(3,5-difluorophenyl)ethylcarbamoyl)-4-oxopyrrolidine-1-carboxylate]",21700 nM,1%
"NC(=O)c1cc(-c2cccnc2[C@H](Cc2cc(F)cc(F)c2)NC(=O)Cn2nc(C(F)(F)F)cc2C2CC2)ccc1F [Example 138, (S)-5-(2-(1-(2-(5-cyclopropyl-3-(trifluoromethyl)-1H-pyrazol-1-yl)acetamido)-2-(3,5-difluorophenyl)ethyl)pyridin-3-yl)-2-fluorobenzamide]",24500 nM,30%
"CC(C)(C)OC(=O)N1[C@@H](c2ccccc2)CC[C@H]1C(=O)N[C@@H](Cc1cc(F)cc(F)c1)c1ncccc1-c1ccc(F)c(C(N)=O)c1 [Example 139, (2S,5R)-tert-butyl 2-((S)-1-(3-(3-carbamoyl-4-fluorophenyl)pyridin-2-yl)-2-(3,5-difluorophenyl)ethylcarbamoyl)-5-phenylpyrrolidine-1-carboxylate]",14000 nM,8%
"CC(C)(C)OC(=O)N1C(=O)CC[C@H]1C(=O)N[C@@H](Cc1cc(F)cc(F)c1)c1ncccc1-c1ccc(F)c(C(N)=O)c1 [Example 140, (S)-tert-butyl 2-((S)-1-(3-(3-carbamoyl-4-fluorophenyl)pyridin-2-yl)-2-(3,5-difluorophenyl)ethylcarbamoyl)-5-oxopyrrolidine-1-carboxylate]",> 53000 nM,0%
"NC(=O)c1cc(-c2cccnc2[C@H](Cc2cc(F)cc(F)c2)NC(=O)Cc2n[nH]c3ccc(C(F)(F)F)cc23)ccc1F [Example 141G, (S)-5-(2-(2-(3,5-difluorophenyl)-1-(2-(5-(trifluoromethyl)-1H-indazol-3-yl)acetamido)ethyl)pyridin-3-yl)-2-fluorobenzamide]",21800 nM,4%
"NC(=O)c1cc(-c2cccnc2[C@H](Cc2cc(F)cc(F)c2)NC(=O)Cn2nc(OCc3ncccn3)c3c2CCCC3)ccc1F [Example 142C, (S)-5-(2-(2-(3,5-difluorophenyl)-1-(2-(3-(pyrimidin-2-ylmethoxy)-4,5,6,7-tetrahydro-1H-indazol-1-yl)acetamido)ethyl)pyridin-3-yl)-2-fluorobenzamide]",> 53200 nM,23%
"NC(=O)c1cc(-c2cccnc2[C@H](Cc2cc(F)cc(F)c2)NC(=O)Cn2nc3c(c2C(F)(F)OCc2ccccn2)CCCC3)ccc1F [Example 143, (S)-5-(2-(1-(2-(3-(difluoro(pyridin-2-ylmethoxy)methyl)-4,5,6,7-tetrahydro-2H-indazol-2-yl)acetamido)-2-(3,5-difluorophenyl)ethyl)pyridin-3-yl)-2-fluorobenzamide]",19900 nM,10%
